# Legend:
# Trypanosoma cruzi [1] = assay: GSK_TCAKS: pIC50 Trypanosoma cruzi viability assay using beta-GAL activity. This assay was run at single shot at 5uM compound concentration per well. The biological reagents consisted of NIH-3T3 host cells and trypomastigotes parasitic cells; both cell types were set to a 3.3 * 10^5 cells/mL dilution in assay DMEM by means of a CASY cell counter device using a 60um capillary. 6 uL of the mixture were dispensed per well (about 1 * 10^3 host-cells and 1 * 10^3 parasites) with a Multidrop Combi dispenser. […] In all wells, the percentage of DMSO never exceeded 0.5%. Plates incubated for four days at 37C, 5% CO2. The substrate used for the assay fluorescence intensity (FLINT) readout was resorufin-beta-D-galactopiranoside (Sigma-Aldrich) at 5uM per well. It was diluted in PBS supplemented with the soft detergent Igepal (Fluka).; type: functional, organism-based, Mus musculus; settings: Tulahuen, NIH3T3
# Trypanosoma cruzi [2] = assay: (§1) GSK_TCAKS: pIC50 Trypanosoma cruzi Imaging: Infected Cells. […] Cells were then washed once with PBS before infection. T. cruzi trypomastigotes, collected at days 5 to 8 after infection from LLC-MK2 parasite infected cultures, were allowed to swim out for 4h at 37C from a centrifuged pellet (2,500 rpm/10 min/room temperature). Trypomastigotes were then collected and counted in a CASY Cell Counter. Trypomastigotes, in supplemented DMEM, were added to H9c2 cultures in a multiplicity of infection of 1 and incubated for 18 h. Cells were washed once with PBS before incubation of the infected H9c2 monolayer with trypsin (Life-Technologies) to detach cells from the flask. Cells were counted in a CASY Cell Counter using a 150 um capillary and their density set at 5 * 10^4 cells per mL in supplemented assay DMEM. Infected H9c2 were dispensed into 384-well poly-lysine coated assay plates at 50uL per well using a Multidrop Combi dispenser. After seeding them, the plates were incubated at 37C, 5% CO2 for 72h. Cultures were then fixed and stained by addition of 50 uL of a solution containing 8% formaldehyde and 4 uM DRAQ5 DNA dye (BioStatus, UK) per well. […] Five images were collected per well for reliable statistical analysis. Automated image analysis was performed with a script developed on Acapella High Content Imaging and Analysis Software (PerkinElmer). Output: percentage of infected cells per well as a second infection marker.; type: functional, organism-based, Rattus norvegicus; settings: H9c2, 4 h
# Trypanosoma cruzi [3] = assay: GSK_TCAKS: pIC50 Trypanosoma cruzi Imaging: Amastigotes/Cell. […] Cells were then washed once with PBS before infection. T. cruzi trypomastigotes, collected at days 5 to 8 after infection from LLC-MK2 parasite infected cultures, were allowed to swim out for 4h at 37C from a centrifuged pellet (2,500 rpm/10 min/room temperature). Trypomastigotes were then collected and counted in a CASY Cell Counter. Trypomastigotes, in supplemented DMEM, were added to H9c2 cultures in a multiplicity of infection of 1 and incubated for 18 h. Cells were washed once with PBS before incubation of the infected H9c2 monolayer with trypsin (Life-Technologies) to detach cells from the flask. Cells were counted in a CASY Cell Counter using a 150 um capillary and their density set at 5 * 10^4 cells per mL in supplemented assay DMEM. Infected H9c2 were dispensed into 384-well poly-lysine coated assay plates at 50uL per well using a Multidrop Combi dispenser. After seeding them, the plates were incubated at 37C, 5% CO2 for 72h. Cultures were then fixed and stained by addition of 50 uL of a solution containing 8% formaldehyde and 4 uM DRAQ5 DNA dye (BioStatus, UK) per well. […] Five images were collected per well for reliable statistical analysis. Automated image analysis was performed with a script developed on Acapella High Content Imaging and Analysis Software (PerkinElmer). Output: number of amastigotes per cell as infection level measurement.; type: functional, organism-based, Rattus norvegicus; settings: H9c2, 4 h
# Trypanosoma cruzi [4] = assay: as §1, with “H2C9” for “Trypanosoma cruzi”, “H9c2 Host Cardiomyocytes.” for “Infected Cells.”, “Number” for “percentage”, “H9c2 Host Cardiomyocytes nuclei to determine drug-related cytotoxicity.” for “infected cells per well as a second infection marker.”; type: functional, organism-based, Rattus norvegicus; settings: H9c2, 4 h
# Leishmania donovani [5] = assay: GSK_TCAKS: pIC50 Leishmania donovani viability assay using fluorescence intensity. Assay plates (1536-well) were prepared by adding 30nL per well of compound. For single shot assay, the final compound concentration was 5uM. […] Briefly, eGFP LdBOB axenic amastigotes were harvested, fixed and counted in a CASY cell counter (Roche-Applied Science). A final concentration of 1.5 * 10^5 cells per well were prepared in amastigote media containing 500 U/mL penicillin/streptomycin (Invitrogen) and 6uL was dispensed to each experimental well using a Multidrop Combi dispenser (Thermo Scientific). 6uL of assay media was dispensed to control columns used as reference for 100% compound response. Following incubation for 72 h at 37C, 5% CO2, 2 uL of resazurin was added to each well at a final concentration of 0.5 mM in phosphate buffered saline (PBS) with IGEPAL (Sigma-Aldrich), 0.05% (v/v).; type: functional, organism-based
# Leishmania donovani [6] = assay: (§2) GSK_TCAKS: pIC50 Leishmania donovani Imaging: Infected Macrophages. Assay plates (384-well) were prepared by adding 250nL of compound to each well. For single shot assay, the final compound concentration was 5 uM. […] Automated image analysis was performed with a script developed on Acapella High Content Imaging and Analysis Software (PerkinElmer). Output: Percent of infected macrophage cells were reported for each well.; type: functional, organism-based, Homo sapiens; settings: THP-1
# Leishmania donovani [7] = assay: as §2, with “Amastigotes/Macrophages.” for “Infected Macrophages.”, “Average number” for “Percent”, “amastigotes per” for “infected”, “cell” for “cells”; type: functional, organism-based, Homo sapiens; settings: THP-1
# Leishmania donovani [8] = assay: as §2, with “THP-1 Host” for “Infected”, “THP-1 cell count” for “Percent of infected macrophage cells”; type: functional, organism-based, Homo sapiens
# [9] = system: Trypanosoma brucei brucei; assay: GSK_TCAKS: pIC50 Trypanosoma brucei viability assay using fluorescence intensity. Assay plates (1536-well) were prepared by dispensing 25nL of compound solution per well using an Echo acoustic dispenser (Labcyte).; type: functional, organism-based; settings: Lister 427, 2 h
# [10] = system: Trypanosoma brucei brucei; assay: GSK_TCAKS: pIC50 Trypanosoma brucei viability assay using luminiscence. Assay plates (1536-well) were prepared. T. brucei cultures were harvested and counted in a CASY cell counter. A parasite suspension was prepared at a final concentration of 5 * 10^4 cells/mL in complete HMI9 medium and 6uL was dispensed to all wells containing compounds using a Multidrop Combi dispenser. 6uL of HMI9 media with 0.4% DMSO were dispensed to control columns. Plates were incubated for 24 h at 37C, 5% CO2 then tempered for 10 min at room temperature. ATP content was quantified by adding 4 uL of CellTiter-Glo Reagent (Promega) according to the manufacturer's instructions. Luminescence was measured using a ViewLux.; type: functional, organism-based; settings: Lister 427, CASY
# [11] = GSK_TCAKS: pIC50 HepG2 human cell line viability assay using luminiscence. […] Seeding density was checked to ensure that new mono-layers were not more than 50% confluent at the time of harvesting. Cell suspension was added to 500 mL of the same medium at a final density of 1.2 * 10^5 cells/mL. This cell suspension was dispensed (25 uL, 3000 cells per well) into 384-well clear-bottom plates using a Multidrop Combi dispenser. Prior to addition of the cell suspension, the screening compounds (250 nL) were pre-dispensed into the plates with an Echo liquid handler. Plates were incubated for 48 h at 37C, 5% CO2. After incubation, plates equilibrated at room temperature for 30 min before proceeding to develop the luminescent signal. The signal developer, CellTiter-Glo Reagent, was allowed to equilibrate at room temperature for 30 min and added to the plates (25uL per well) using a Multidrop Combi dispenser. Plates were left for 10 min at room temperature for stabilization and then read using a ViewLux.; type: toxicity, cell-based
# [12] = biological target: Sterol 14-alpha demethylase (Trypanosoma cruzi (strain CL Brener), UniProt Q7Z1V1); assay: GSK_TCAKS: pIC50 CYP51 from Trypanosoma cruzi.; type: functional
# Sterol 14-alpha demethylase, sequence (Q7Z1V1 whole entry): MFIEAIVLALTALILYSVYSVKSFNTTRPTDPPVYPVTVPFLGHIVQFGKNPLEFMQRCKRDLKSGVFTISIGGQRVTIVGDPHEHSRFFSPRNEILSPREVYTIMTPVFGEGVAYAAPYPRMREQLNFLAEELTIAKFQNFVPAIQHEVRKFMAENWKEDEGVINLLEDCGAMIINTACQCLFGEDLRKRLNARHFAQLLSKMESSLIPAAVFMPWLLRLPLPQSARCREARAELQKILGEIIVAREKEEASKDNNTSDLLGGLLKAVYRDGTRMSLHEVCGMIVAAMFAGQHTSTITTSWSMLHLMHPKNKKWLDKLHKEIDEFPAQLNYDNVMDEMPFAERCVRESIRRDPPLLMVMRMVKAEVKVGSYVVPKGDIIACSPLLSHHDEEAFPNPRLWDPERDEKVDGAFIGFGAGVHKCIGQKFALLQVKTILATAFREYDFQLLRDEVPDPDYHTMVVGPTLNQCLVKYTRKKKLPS
Structure (SMILES),IC50 (Trypanosoma cruzi [1]) [µM],IC50 (Trypanosoma cruzi [2]) [µM],IC50 (Trypanosoma cruzi [3]) [µM],IC50 (Trypanosoma cruzi [4]) [µM],IC50 (Leishmania donovani [5]) [µM],IC50 (Leishmania donovani [6]) [µM],IC50 (Leishmania donovani [7]) [µM],IC50 (Leishmania donovani [8]) [µM],IC50 [9] [µM],IC50 [10] [µM],IC50 at 48 h [11] [µM],IC50 [12] [µM]
COc1cc(C2SCC(=O)Nc3c2c(C)nn3-c2nc3ccccc3s2)cc(OC)c1O (stereo unspecified),> 50.1,> 50.1,> 50.1,> 50.1,6.31,0.316,0.251,> 50.1,6.31,> 39.8,> 100,5.01
CC(=O)NC1(c2ccccc2)CCN(CC(=O)Nc2ccccc2-c2ccccc2)CC1,1.26,7.94,1.58,> 50.1,20,> 50.1,39.8,> 50.1,0.631,0.501,> 100,50.1
Cc1nc(-c2ccc3c(c2)OCO3)sc1C(=O)NCc1ccc2c(c1)OCO2,3.55,0.794,0.501,> 50.1,2,0.251,0.794,> 50.1,10,> 39.8,> 100,5.01
CC(C)(C)Nc1nc(Nc2ccc3c(c2)CS(=O)(=O)C3)nc2[nH]ccc12,1,31.6,20,1,7.94,6.31,5.01,20,0.794,5.01,31.6,25.1
Cc1cn[nH]c1C1CCCN(Cc2nc3ccccc3n2C)C1 (stereo unspecified),3.16,20,10,> 50.1,15.8,3.98,3.16,20,6.31,7.94,50.1,1.26
COc1ccccc1-n1c(SCC(=O)Nc2ccc3c(c2)OCO3)nc2c(c1=O)SCC2,39.8,15.8,7.94,> 50.1,10,7.94,5.01,> 50.1,> 39.8,> 39.8,> 100,63.1
O=C(CN1CCN(S(=O)(=O)c2cccc([N+](=O)[O-])c2)CC1)Nc1ccc(Oc2ccccc2)cc1,2.51,2.51,1.26,> 50.1,3.98,7.94,2,> 50.1,20,15.8,> 100,2.51
CC(=O)Nc1ccc(-c2ccnc(Nc3cccc(C#N)c3)n2)cc1,6.31,6.31,3.16,12.6,39.8,15.8,10,10,0.631,0.794,> 100,25.1

# From ChEMBL document CHEMBL3430912, “GSK Tres Cantos Anti-Kinetoplastid Screening (TCAKS) Data”
